The IC50 is the midpoint of a concentration-inhibition curve. A high value points to lower potency.

IC50 data for 33 compounds are collected here from patent publication US20190374526A1, “Substituted Heterocyclic Compounds as Inhibitors of PRDM9” (Merck Sharp & Dohme Corp., priority 2018, published 2019).

This assay concerns the target T1, hPRDM9 (amino acids 195-385) (Homo sapiens, UniProt Q9NQV7).
T1 construct: 1.25 nM hPRDM9 (amino acids 195-385)
T1 sequence (Q9NQV7 195-385): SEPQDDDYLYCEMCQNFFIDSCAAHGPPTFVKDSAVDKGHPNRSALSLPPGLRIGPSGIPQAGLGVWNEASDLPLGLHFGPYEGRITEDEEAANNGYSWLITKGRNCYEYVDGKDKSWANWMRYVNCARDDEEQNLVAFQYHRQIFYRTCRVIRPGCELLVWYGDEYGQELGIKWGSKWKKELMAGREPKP
As to the kind of experiment: PRDM9 biochemical assay (radiometric, 3[H] methyl transfer from SAM to biotinylated histone H3 peptide). To be noted: 1 nM hPRDM9, 1 μM biotinylated H3(1-25)K4 peptide, 5 μM 3[H]-SAM, 55 μM un-labeled SAM, 25° C., 30 minutes. How it is done: The PRDM9 biochemical assay was carried out using a radiometric format involving the transfer of ^3[H] methyl group from S-adenosyl methionine (SAM) to a biotinylated histone H3 peptide (H3(1-25)K4). 10 mM compounds in DMSO were diluted 20 fold in assay buffer (10 mM Tris-HCl, pH 8.5, 10 mM DTT, and 0.01% Triton X-100) before adding […] to a well in a 384 well polypropylene microplate plate and adding 8 μl of reaction mix (1.25 nM hPRDM9 (amino acids 195-385), 1.25 μM biotinylated H3 peptide in assay buffer). The ^3[H]-SAM and cold SAM stock solutions were diluted to 50 μM and 550 μM respectively in assay buffer before aliquoting 1 μl of 50 μM ^3[H]-SAM, 550 μM SAM into each well to initiate the reaction. The assay was performed at 25° C. at the final concentrations of 1 nM hPRDM9, 1 μM peptide, 5 μM ^3[H]-SAM, and 55 μM un-labeled SAM in assay buffer. The reaction was quenched after 30 minutes by adding 25 μl 7.5 M Guanidine-HCl. Quenched reactions were transferred to streptavidin coated Flashplates, diluted two fold in assay buffer, incubated for 1 hour, and read on a Perkin Elmer Topcount instrument. Compound activity was expressed relative to activity of 0.5% (v/v) DMSO treated samples and fit to a four parameter logistic equation to determine IC50 values.

On to `COc1cc(OC)cc(-c2noc(N3CCN(CC(F)(F)F)C4(CCN(c5ccnc(C)c5)CC4)C3)n2)c1` [Compound 93, 3-(3,5-dimethoxyphenyl)-5-(9-(2-methylpyridin-4-yl)-1-(2,2,2-trifluoroethyl)-1,4,9-triazaspiro[5.5]undecan-4-yl)-1,2,4-oxadiazole], for which it took 0.06 µM to reach half-maximal inhibition (IC50).
For the compound `COCCN1CCN(c2nc(-c3cc(OC)cc(OC)c3)no2)CC12CCN(c1ccnc(C)c1)CC2` [Compound 94], the IC50 was 0.109 µM.
Compound `Cc1cc(N2CCC3(CC2)CN(c2nc(-c4cc(OC5CC5)cc(OC5CC5)c4)no2)CCN3C)ccn1` [Compound 95] returned an IC50 of 0.044 µM.
In turn, `CCOc1cc(OCC)cc(-c2noc(N3CCN(C)C4(CCN(c5ccnc(C)c5)CC4)C3)n2)c1` [Compound 96] displayed an IC50 of 0.103 µM.
In the case of `Cc1cc(N2CCC3(CC2)CN(c2nc(-c4cc(OC(C)C)cc(OC(C)C)c4)no2)CCN3C)ccn1` [Compound 97] it was 1.37 µM; in that of `COc1cc(OC)cc(-c2noc(N3CCN(CCO)C4(CCN(c5ccnc(C)c5)CC4)C3)n2)c1` [Compound 98], 0.095 µM.
The same measure for `COc1cc(OC)cc(-c2noc(N3CCN(S(C)(=O)=O)C4(CCN(c5ccnc(C)c5)CC4)C3)n2)c1` [Compound 99]: 0.07 µM; for `COc1cc(OC)cc(-c2noc(N3CCN(c4ccccc4)C4(CCN(c5ccnc(C)c5)CC4)C3)n2)c1` [Compound 100]: 0.14 µM.
Regarding `COc1cc(OC)cc(-c2noc(N3CCN(C(=O)N(C)C)C4(CCN(c5ccnc(C)c5)CC4)C3)n2)c1` [Compound 101], the IC50 came out at 0.45 µM.
`COc1cc(OC)cc(-c2noc(N3CCN(C)C4(CCN(c5ccnc6ccccc56)CC4)C3)n2)c1` [Compound 102] yielded an IC50 of 4.4 µM.
The compound `Cc1cc(N2CC3(CCCN(c4nc(-c5cc(Cl)cc(Cl)c5)no4)C3)C2)ccn1` [Compound 116, 3-(3,5-dichlorophenyl)-5-(2-(2-methylpyridin-4-yl)-2,6-diazaspiro[3.5]nonan-6-yl)-1,2,4-oxadiazole] gave an IC50 of 0.072 µM.
The same measure for `Cc1cc(N2CC3(CCCN(c4nc(-c5cccc(Br)c5)no4)C3)C2)ccn1` [Compound 117]: 2 µM; for `Cc1cc(N2CC3(CCCN(c4nc(-c5cc(Cl)cc(Cl)c5)co4)C3)C2)ccn1` [Compound 118]: 16.6 µM; for `Cc1cc(N2CC3(C2)CN(c2nc(-c4cc(Cl)cc(Cl)c4)no2)CCO3)ccn1` [Compound 119]: 0.3 µM.
`Cc1cc(N2CC3(CCCN(c4cncc(-c5cc(Cl)cc(Cl)c5)n4)C3)C2)ccn1` [Compound 120] came in with an IC50 of 12.2 µM.
On to `Cc1cc(N2CC3(CCCN(c4onc(-c5cc(Cl)cc(Cl)c5)c4Br)C3)C2)ccn1` [Compound 121, 4-bromo-3-(3,5-dichlorophenyl)-5-(2-(2-methylpyridin-4-yl)-2,6-diazaspiro[3.5]nonan-6-yl)isoxazole], for which inhibition was half-maximal at 13.7 µM (IC50).
Compound `Cc1cc(N2CC3(CCCN(c4onc(-c5cc(Cl)cc(Cl)c5)c4-c4ccoc4)C3)C2)ccn1` [Compound 122, 3-(3,5-dichlorophenyl)-4-(furan-3-yl)-5-(2-(2-methylpyridin-4-yl)-2,6-diazaspiro[3.5]nonan-6-yl)isoxazole] registered an IC50 of 30.6 µM.
Turning to `Cc1cc(N2CC3(CCCN(c4onc(-c5cc(Cl)cc(Cl)c5)c4-c4ccc(N)cc4)C3)C2)ccn1` [Compound 123], the IC50 turned out to be 6.67 µM.
`COc1ccccc1-c1c(-c2cc(Cl)cc(Cl)c2)noc1N1CCCC2(CN(c3ccnc(C)c3)C2)C1` [Compound 124] showed an IC50 of 17.6 µM.
Consider `COc1ccc(-c2c(-c3cc(Cl)cc(Cl)c3)noc2N2CCCC3(CN(c4ccnc(C)c4)C3)C2)c(OC)c1` [Compound 125], for which the IC50 stood at 25.1 µM.
Regarding `Cc1cc(N2CC3(CCCN(c4ccn(-c5cc(Cl)cc(Cl)c5)n4)C3)C2)ccn1` [Compound 126, 6-(1-(3,5-dichlorophenyl)-1H-pyrazol-3-yl)-2-(2-methylpyridin-4-yl)-2,6-diazaspiro[3.5]nonane], the IC50 was found to be 11.1 µM.
In the case of `Cc1cc(N2CC3(CCCN(CC(C)C(=O)c4cc(Cl)cc(Cl)c4)C3)C2)ccn1` (stereo not drawn) [Compound 127, 1-(3,5-dichlorophenyl)-2-methyl-3-(2-(2-methylpyridin-4-yl)-2,6-diazaspiro[3.5]nonan-6-yl)propan-1-one] it was 26.9 µM; in that of `Cc1cc(N2CC3(CCCN(c4cc(-c5cccc(F)c5F)n[nH]4)C3)C2)ccn1` [Compound 128, 6-(3-(2,3-difluorophenyl)-1H-pyrazol-5-yl)-2-(2-methylpyridin-4-yl)-2,6-diazaspiro[3.5]nonane], 23.7 µM; in that of `COC(=O)c1cccc(-c2cc(N3CCCC4(CN(c5ccnc(C)c5)C4)C3)on2)c1` [Compound 129, methyl 3-(5-(2-(2-methylpyridin-4-yl)-2,6-diazaspiro[3.5]nonan-6-yl)isoxazol-3-yl)benzoate], 19.1 µM.
Turning to `COC(=O)c1cccc(-c2cc(N3CCCC4(CN(c5ccnc(C)c5)C4)C3)[nH]n2)c1` [Compound 130, methyl 3-(5-(2-(2-methylpyridin-4-yl)-2,6-diazaspiro[3.5]nonan-6-yl)-1H-pyrazol-3-yl)benzoate], the IC50 came out at 24.3 µM.
Regarding `Cc1cc(N2CC3(CCCN(c4cc(-c5ccc(F)c(F)c5)n[nH]4)C3)C2)ccn1` [Compound 131, 6-(3-(3,4-difluorophenyl)-1H-pyrazol-5-yl)-2-(2-methylpyridin-4-yl)-2,6-diazaspiro[3.5]nonane], half-maximal inhibition (IC50) was put at 23.1 µM.
In the case of `Cc1cc(N2CC3(CCCN(c4ccnc(-c5cc(Cl)cc(Cl)c5)c4)C3)C2)ccn1` [Compound 132, 6-(2-(3,5-dichlorophenyl)pyridin-4-yl)-2-(2-methylpyridin-4-yl)-2,6-diazaspiro[3.5]nonane] it was 5.46 µM; in that of `Cc1cc(N2CC3(CCCN(c4cc(-c5cccc(F)c5F)no4)C3)C2)ccn1` [Compound 133, 3-(2,3-difluorophenyl)-5-(2-(2-methylpyridin-4-yl)-2,6-diazaspiro[3.5]nonan-6-yl)isoxazole], 17 µM.
`Cc1cc(N2CC3(CCCN(c4ccc5c(Cl)cc(Cl)cc5n4)C3)C2)ccn1` [Compound 134, 5,7-dichloro-2-(2-(2-methylpyridin-4-yl)-2,6-diazaspiro[3.5]nonan-6-yl)quinoline] registered an IC50 of 34.6 µM.
Compound `Cc1cc(N2CC3(CCCN(c4cc(-c5ccc(F)c(C(F)(F)F)c5)n[nH]4)C3)C2)ccn1` [Compound 135, 6-(3-(4-fluoro-3-(trifluoromethyl)phenyl)-1H-pyrazol-5-yl)-2-(2-methylpyridin-4-yl)-2,6-diazaspiro[3.5]nonane] registered a half-inhibitory concentration (IC50) of 21.1 µM.
The same measure for `Cc1cc(N2CC3(CCCN(c4cc(-c5cc(F)cc(Cl)c5)n[nH]4)C3)C2)ccn1` [Compound 136, 6-(3-(3-chloro-5-fluorophenyl)-1H-pyrazol-5-yl)-2-(2-methylpyridin-4-yl)-2,6-diazaspiro[3.5]nonane]: 16.5 µM.
`Cc1cc(N2CC3(CCCN(c4cc(-c5cc(Cl)cc(Cl)c5)ccn4)C3)C2)ccn1` [Compound 137, 6-(4-(3,5-dichlorophenyl)pyridin-2-yl)-2-(2-methylpyridin-4-yl)-2,6-diazaspiro[3.5]nonane] displayed an IC50 of 21.5 µM.
For `Cc1cc(N2CC3(CCCN(c4nc(-c5ccccc5)no4)C3)C2)ccn1` [Compound 138, 5-(2-(2-methylpyridin-4-yl)-2,6-diazaspiro[3.5]nonan-6-yl)-3-phenyl-1,2,4-oxadiazole], half-maximal inhibition (IC50) required 4.8 µM.
